# In patent publication US4427659A, “Muramyl peptide substituted on a peptide nitrogen and medicaments containing the same” (Agence Nationale de Valorisation de la Recherche (ANVAR), priority 1979, dated 1984):
# Legend:
# rabbit = conditions: in vivo
# Text: In addition, the eventuality of a pyrogenic effect in the rabbit was sought, by following the protocol of the European Pharmacopoea, Vol. 2, 1971, pages 58-60.
# Ovalbumin = test: Adjuvant character in emulsion (FIA): delayed hypersensitivity and specific anti-bodies to ovalbumin; assay type: in vivo, Hartley males; conditions: 100 μg where printed, no dose given for the methyl ester; for φ mm induration after 48 h: delayed hypersensitivity to 0.025 mg ovalbumin intradermal, 18 days after immunisation with 1 mg ovalbumin in FIA emulsion; for antibodies Log2 μg/ml: serum 21 days after injection, nitrogen precipitatable by ovalbumin, 1 mg ovalbumin in FIA emulsion
# Procedure: The tests were carried out on batches of 6 Hartley males of 350 g. The administration was done by intradermal injection into the plantar pad of each of the rear paws. Ovalbumin (constituting the antigen) in the proportion of 1 mg is prepared in 0.1 ml of an emulsion of saline isotonic solution, in an oily phase constituted by the Freund incomplete adjuvant (FIA).
# Eighteen days after this immunisation, possible delayed hypersensitivity reactions (HSR) to the antigen were sought by injecting by the intradermal route 0.025 mg of ovalbumin in the side of the animals, […] The diameter in millimiters of the reaction so-caused was measured.
# Twenty one days after the injection, the animals were bled. In the serum collected, the contents of specific anti-bodies of the ovalbumin was measured by precipitation of the antibody-antigen complex in the equivalent zone. The amount of protein nitrogen contained in this precipitate was devaluated by the Folin method. The mean values of the contents of antibodies are indicated in the Table of results by the logarithm to base 2. These values express the amount, in micrograms of nitrogen precipitatable by the antigen, per millimiter of serum.
# [1] = tested on: bovine serum albumin (BSA); test: Adjuvant character in the aqueous phase: anti-body level by passive hemagglutination after BSA with the substance; assay type: in vivo; conditions: Swiss mice, SC; for Log2 hemagglutinating titer, Secondary response D 36: 0.5 mg BSA with 0.1 mg substance, booster 0.1 mg BSA thirty days later, six days after booster; for Log2 hemagglutinating titer, Primary response D 28: 0.5 mg BSA with 0.1 mg substance in isotonic saline, before booster
# Procedure: Groups of 8 Swiss mice aged two months receive, by sub-cutaneous injection (SC), 0.5 mg of antigen constituted by bovine serum albumin (BSA) with (0.1 mg) or without the substance under test in an isotonic saline solution. This high dose of antigen, because it is situated at the limit of the paralysing dose with respect to the immune response, results, through this fact, in a weak or nul response to the antigen alone in the controls; it constitutes therefore a severe criterion to establish the activity of an adjuvant substance. Thirty days later, the mice receive, by the same route of administration, a booster containing 0.1 mg of the same antigen.
# The anti-body level is determined, before and six days after the booster, by passive hemagglutination using sheep's red blood cells treated with formalin and covered with the antigen under study according to the method described by A. A. HIRATA and M. W. BRANDISS (J. Immunol., 100, 641-648, 1968).
# The anty-body titer, represented by the maximum serum dilution agglutinating a given amount of sheep's red blood cells reaches a maximum at the 36th day following the first injection and is estblished in the following manner.
Compound,pyrogenic character (rabbit),φ mm induration after 48 h (Ovalbumin) [mm],antibodies Log2 μg/ml (Ovalbumin) [Log2 μg/ml],"Log2 hemagglutinating titer, Secondary response D 36 [1]","Log2 hemagglutinating titer, Primary response D 28 [1]"
N-acetyl-muramyl-N-methyl-L-alanyl-D-glutamine-methyl-ester [MDP-(N--methyl-Ala)--OCH3],absence of a pyrogenic character,5 ± 2,10.11 ± 0.6,5.11,
N-acetyl-muramyl-N-methyl-L-alanyl-D-isoglutamine [MDP-(N--methyl-Ala)],absence of a pyrogenic character,14 ± 0.8,12.51 ± 0.88,9.27 ± 1.19,4.64
"CC(=O)N[C@@H]1[C@@H](O[C@H](C)C(=O)N[C@@H](C)C(=O)N[C@H](CCC(=O)O)C(N)=O)[C@H](O)[C@@H](CO)O[C@H]1O [MDP, reference compound]",,11.5 ± 2.5,12.31 ± 1.01,8.34 ± 1.34,3.64
